System in the first series: not given
Assay: not given
The following applies: patients treated at currently recommended doses; cited from earlier work.
As to `NC(=O)c1ncn([C@@H]2O[C@H](CO)[C@@H](O)[C@H]2O)n1` [Ribavirin], the “patients with significant hemolysis” value is 10-20%.

A further series deals with HCV replicon I389luc-ubi-neo/NS3-3′/ET in ET (Huh-lucubineo-ET) cells; screening for HCV RNA dependent RNA polymerase. The series is described as follows: Replicon Assay (luciferase, ET cell line Huh-lucubineo-ET). The series is classed as cell-based. The conditions noted are these: Hepatitis C virus; inhibition of replication relative to no compound control; test concentration of 10 μM according to the fitted equation; luciferase 48-72 hours. In outline:
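Huh-derived ET cells stably carrying an I389luc-ubi-neo/NS3-3′/ET HCV replicon with a luciferase-ubiquitin-neomycin phosphotransferase fusion and adaptive NS3-5B mutations were cultured in DMEM with 10% fetal calf serum and 250 μg/mL G418. Cells were seeded at 0.5-1.0×10^4 cells/well in 96 well plates and given compound after 24 hrs. Luciferase was read 48-72 hours later with Bright-Glo reagents, and replication inhibition was expressed relative to untreated controls.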
Turning to `O=C(NC1CCCC1)c1ccc(-c2cnc(NC(=O)[C@@H]3CCCN3C(=O)OCc3ccccc3)s2)cc1` [Compound 5368, 2-[5-(4-Cyclopentylcarbamoyl-phenyl)-thiazol-2-ylcarbamoyl]-pyrrolidine-1-carboxylic acid benzyl ester], the inhibition (commonly the share of the control response that was lost under treatment) at 10 µM is 50.8%. `O=C(NCc1ccc(-c2csc(NC(=O)[C@@H]3CCCN3C(=O)OCc3ccccc3)n2)cc1)C1CC1` [Compound 5369, 2-(4-{4-[(Cyclopropanecarbonyl-amino)-methyl]-phenyl}-thiazol-2-ylcarbamoyl)-pyrrolidine-1-carboxylic acid benzyl ester] yielded an inhibition at 10 µM of 98.3%.

The molecule `COCCCNC(=O)c1ccc(-c2csc(NC(=O)[C@@H]3CCCN3C(=O)OCc3ccccc3)n2)cc1` [Compound 5370, 2-{4-[4-(3-Methoxy-propylcarbamoyl)-phenyl]-thiazol-2-ylcarbamoyl}-pyrrolidine-1-carboxylic acid benzyl ester] returned an inhibition at 10 µM of 100%. `O=C(NC1CC1)c1ccc(-c2csc(NC(=O)[C@@H]3CCCN3C(=O)C3(c4ccccc4)CC3)n2)cc1` [Compound 5371, 1-(1-Phenyl-cyclopropanecarbonyl)-pyrrolidine-2-carboxylic acid [4-(4-cyclopropylcarbamoyl-phenyl)-thiazol-2-yl]-amide] yielded an inhibition at 10 µM of 100%.

With `O=C(Nc1ccccn1)c1ccc(-c2csc(NC(=O)[C@@H]3CCCN3C(=O)OCc3ccccc3)n2)cc1` [Compound 5372, 2-{4-[4-(Pyridin-2-ylcarbamoyl)-phenyl]-thiazol-2-ylcarbamoyl}-pyrrolidine-1-carboxylic acid benzyl ester], the inhibition at 10 µM was 99.9%. With `COC(=O)N1CCC[C@H]1C(=O)Nc1nc(-c2ccc(C(=O)NC3CC3)cc2)cs1` [Compound 5373, 2-[4-(4-Cyclopropylcarbamoyl-phenyl)-thiazol-2-ylcarbamoyl]-pyrrolidine-1-carboxylic acid methyl ester], at 10 µM the inhibition was 81.5%.

As for `O=C(CCCCC1SC[C@@H]2NC(=O)N[C@H]12)NCCCCCC(=O)Nc1ccc(-c2csc(NC(=O)C3CCCN3C(=O)OCc3ccccc3)n2)cc1` (stereo partly drawn) [Compound 5374, 2-[4-(4-{6-[5-(2-Oxo-hexahydro-thieno[3,4-d]imidazol-6-yl)-pentanoylamino]-hexanoylamino}-phenyl)-thiazol-2-ylcarbamoyl]-pyrrolidine-1-carboxylic acid benzyl ester], the inhibition at 10 µM was found to be 99.3%. As for `O=C(NC1CC1)c1ccc(-c2csc(NC(=O)[C@@H]3[C@@H](O)CCN3C(=O)OCc3ccccc3)n2)cc1` [Compound 5376, 2-[4-(4-Cyclopropylcarbamoyl-phenyl)-thiazol-2-ylcarbamoyl]-3-hydroxy-pyrrolidine-1-carboxylic acid benzyl ester], the inhibition at 10 µM was determined as 96%. The same measure, in the same setting: under `O=C(Nc1nc(-c2ccc(C(=O)N3CCN(CCO)CC3)cc2)cs1)[C@@H]1CCCN1C(=O)OCc1ccccc1` [Compound 5377, 2-(4-{4-[4-(2-Hydroxy-ethyl)-piperazine-1-carbonyl]-phenyl}-thiazol-2-ylcarbamoyl)-pyrrolidine-1-carboxylic acid benzyl ester] stands 5.71%. The molecule `O=C(Nc1nc(-c2ccc(S(=O)(=O)NC3CC3)cc2)cs1)C1CCCN1C(=O)OCc1ccccc1` (stereo not drawn) [Compound 5378, 2-[4-(4-Cyclopropylsulfamoyl-phenyl)-thiazol-2-ylcarbamoyl]-pyrrolidine-1-carboxylic acid benzyl ester] came in with an inhibition at 10 µM of 98.3%. Still for that read-out and setting: the same measure for `NCc1ccc(-c2csc(NC(=O)[C@@H]3CCCN3C(=O)OCc3ccccc3)n2)cc1` [Compound 5379, 2-[4-(4-Aminomethyl-phenyl)-thiazol-2-ylcarbamoyl]-pyrrolidine-1-carboxylic acid benzyl ester]: 25%; for `O=C(Nc1nc(-c2ccc(NCC3CCCC3)cc2)cs1)[C@@H]1CCCN1C(=O)OCc1ccccc1` [Compound 5380, 2-{4-[4-(Cyclopentylmethyl-amino)-phenyl]-thiazol-2-ylcarbamoyl}-pyrrolidine-1-carboxylic acid benzyl ester]: 98.3%; for `O=C(Nc1nc(-c2cccc(N(CC3CC3)CC3CC3)c2)cs1)[C@@H]1CCCN1C(=O)OCc1ccccc1` [Compound 5383, 2-{4-[3-(Bis-cyclopropylmethyl-amino)-phenyl]-thiazol-2-ylcarbamoyl}-pyrrolidine-1-carboxylic acid benzyl ester]: 47%. In turn, `O=C(NC1CC1)c1ccc(-c2csc(NC(=O)C3CCCN3C(=O)OCc3ccncc3)n2)cc1` (stereo not drawn) [Compound 5384, 2-[4-(4-Cyclopropylcarbamoyl-phenyl)-thiazol-2-ylcarbamoyl]-pyrrolidine-1-carboxylic acid pyridin-4-ylmethyl ester] had an inhibition at 10 µM of 99.7%.

(Values after patent US7595398B2, “N-(5-membered aromatic ring)-amido anti-viral compounds” (SmithKline Beecham Corporation, priority 2005, dated 2009).)
